Columns and labels:
[1] = test system: Salmonella typhimurium DT104; assay: Comparative in vitro zone diameter test on Müler-Hinton-Agar; type: cell-based; details: amount used: novel compound 0.05 mL, Cephalosporin 0.1 mL, Ampicillin 0.2 mL
From the text: (§1) Here are the findings of the comparative examination of selected pathogens against the novel compound and the antibiotics Cephalosporin and Ampicillin:
(§2) Evaluation of the results by zone diameter: • 0 mm to 4 mm: resistant: R • 5 mm to 9 mm: moderately sensitive: MS • 10 mm to 15 mm: sensitive: S • 16 mm to 20 mm: very sensitive: VS • 21 mm and more: extremely sensitive: ES

Streptococcus pyogenes = assay: as above; type: cell-based; details: amount used: novel compound 0.05 mL, Cephalosporin 0.1 mL, Ampicillin 0.2 mL
From the text: as §1, §2

Listeria monocytogenes = assay: as above; type: cell-based; details: amount used: novel compound 0.05 mL, Cephalosporin 0.1 mL, Ampicillin 0.2 mL
From the text: as §1, §2

Streptococcus pneumoniae = assay: as above; type: cell-based; details: amount used: novel compound 0.05 mL, Cephalosporin 0.1 mL, Ampicillin 0.2 mL
From the text: as §1, §2

Escherichia coli O157:H7 = assay: as above; type: cell-based; details: amount used: novel compound 0.05 mL, Cephalosporin 0.1 mL, Ampicillin 0.2 mL
From the text: as §1, §2

Streptococcus uberis = assay: as above; type: cell-based; details: amount used: novel compound 0.05 mL, Cephalosporin 0.1 mL, Ampicillin 0.2 mL
From the text: as §1, §2

Staphylococcus aureus = assay: as above; type: cell-based; details: amount used: novel compound 0.05 mL, Cephalosporin 0.1 mL, Ampicillin 0.2 mL
From the text: as §1, §2

mice [2] = assay: Acute toxicity LD50, peroral application (p.o.), mice; type: in vivo
From the text: (§3) Both mice and rats were specially selected for the testing of the toxicity of the compounds, medicine, and chemicals. […] Groups of one hundred (100) lab mice and rats of both genders were placed into glass compartments. They were regularly consuming food manufactured for these lab animals. Water consumption was always available.
(§4) The peroral application (p.o.) acute toxicity LD50 testing was done using the standard procedure: application p.o. with the special lab pipette easy to administer liquid product: orally to the lab animals.
Breathing and cardiac functions were regular, function of thorax was regular and without visual changes. Discomfort symptoms were noticed after the applications, disappeared after 1-3 min, diverse from mouse to mouse.

mice [3] = assay: Acute toxicity LD50, intraperitoneal (i.p.) injection, mice; type: in vivo
From the text: as §3
(§5) Intraperitoneal testing of the compound LD50 i.e. by pharmaceutical lab needle and syringe, designed for the easy application to the lab animals intraperitoneally.
Breathing and cardiac functions were regular, function of thorax was regular and without visual changes. Discomfort symptoms noticed after the applications, disappeared after 3-5 min, diverse from mouse to mouse.

rats [4] = assay: Acute toxicity LD50, peroral application (p.o.), rats; type: in vivo
From the text: as §3, §4
Breathing and cardiac functions were regular, function of thorax was regular and without visual changes. Discomfort symptoms noticed after the applications, disappeared after 1-3 min, diverse from rat to rat.

rats [5] = assay: Acute toxicity LD50, intraperitoneal (i.p.) injection, rats; type: in vivo
From the text: as §3, §5
Breathing and cardiac functions were regular, function of thorax was regular and without visual changes. Discomfort symptoms noticed after the applications, disappeared after 5-6 min, diverse from rat to rat.

CC1(C)S[C@@H]2[C@H](NC(=O)[C@H](N)c3ccccc3)C(=O)N2[C@H]1C(=O)O [Ampicilin, Ampicillin]
R (evaluation by zone diameter) [1]: MS (5 mm to 9 mm: moderately sensitive: MS)
zone diameter [1]: 6 mm
R (evaluation by zone diameter) (Streptococcus pyogenes): R (0 mm to 4 mm: resistant: R)
zone diameter (Streptococcus pyogenes): 3 mm
R (evaluation by zone diameter) (Listeria monocytogenes): MS (5 mm to 9 mm: moderately sensitive: MS)
zone diameter (Listeria monocytogenes): 7 mm
R (evaluation by zone diameter) (Streptococcus pneumoniae): R (0 mm to 4 mm: resistant: R)
zone diameter (Streptococcus pneumoniae): 0 mm
R (evaluation by zone diameter) (Escherichia coli O157:H7): MS (5 mm to 9 mm: moderately sensitive: MS)
zone diameter (Escherichia coli O157:H7): 7 mm
R (evaluation by zone diameter) (Streptococcus uberis): R (0 mm to 4 mm: resistant: R)
zone diameter (Streptococcus uberis): 0 mm
R (evaluation by zone diameter) (Staphylococcus aureus): R (0 mm to 4 mm: resistant: R)
zone diameter (Staphylococcus aureus): 0 mm

CCN(CC)CC(=O)Nc1c(C)cccc1C.Cc1cc([N+](=O)[O-])c(C(C)C)c([N+](=O)[O-])c1O [Novel Compound, 2,4-dinitro-5-isopropyl-2-methylphenoxy-N-(2,6-dimethylphenylium)-N2,N2-diethylglycinamide]
toxicity conclusion (mice [2]; orally (p.o.), applied doses): low toxic
oral LD50 (mice [2]; p.o.): over 2,000 μL/kg
animals that changed their behavior and demonstrated light discomfort, running, anxiety (mice [2]; p.o., 2,000 μL/kg): 23 mice out of one hundred (100)
time after which discomfort symptoms disappeared (mice [2]; p.o., 2,000 μL/kg): 1 to 3 min
lethality during the test (mice [2]; p.o., doses up to 2,000 μL/kg): No mouse has ended lethally
Intraperitoneal LD50 (mice [3]; i.p.): over 1,550 μL/kg
animals that changed their behavior and demonstrated discomfort, running, anxiety (mice [3]; i.p., 1,550 μL/kg): 21 mice out of one hundred (100)
time after which discomfort symptoms disappeared (mice [3]; i.p., 1,550 μL/kg): 3 to 5 min
toxicity conclusion (mice [3]; i.p., applied doses): low toxic
lethality during the test (mice [3]; i.p., doses up to 1,550 μL/kg): No mouse has ended lethally
R (evaluation by zone diameter) [1]: ES (21 mm and more: extremely sensitive: ES)
zone diameter [1]: 25 mm
R (evaluation by zone diameter) (Streptococcus pyogenes): ES (21 mm and more: extremely sensitive: ES)
zone diameter (Streptococcus pyogenes): 29 mm
R (evaluation by zone diameter) (Listeria monocytogenes): ES (21 mm and more: extremely sensitive: ES)
zone diameter (Listeria monocytogenes): 33 mm
R (evaluation by zone diameter) (Streptococcus pneumoniae): ES (21 mm and more: extremely sensitive: ES)
zone diameter (Streptococcus pneumoniae): 31 mm
R (evaluation by zone diameter) (Escherichia coli O157:H7): ES (21 mm and more: extremely sensitive: ES)
zone diameter (Escherichia coli O157:H7): 24 mm
R (evaluation by zone diameter) (Streptococcus uberis): ES (21 mm and more: extremely sensitive: ES)
zone diameter (Streptococcus uberis): 32 mm
R (evaluation by zone diameter) (Staphylococcus aureus): ES (21 mm and more: extremely sensitive: ES)
zone diameter (Staphylococcus aureus): 27 mm
toxicity conclusion (rats [4]; orally (p.o.), applied doses): low toxic
oral LD50 (rats [4]; p.o.): over 2,250 μL/kg
animals that changed their behavior and demonstrated light discomfort, running, anxiety (rats [4]; p.o., 2,250 μL/kg): 37 rats out of one hundred (100)
time after which discomfort symptoms disappeared (rats [4]; p.o., 2,250 μL/kg): 1 to 3 min
lethality during the test (rats [4]; p.o., doses up to 2,250 μL/kg): No rat has ended lethally
Intraperitoneal LD50 (rats [5]; i.p.): over 1,750 ML/kg
animals that changed their behavior and demonstrated discomfort, running, anxiety (rats [5]; i.p., 1,750 μL/kg): 29 rats out of one hundred (100)
time after which discomfort symptoms disappeared (rats [5]; i.p., 1,750 μL/kg): 5 to 6 min
toxicity conclusion (rats [5]; i.p., applied doses): low toxic
lethality during the test (rats [5]; i.p., doses up to 1,750 μL/kg): No rat has passed lethally
